Test results as given in US4379917A, “6"-(Substituted)-apramycin antibiotic derivatives and intermediates and starting materials therefor” (Eli Lilly and Company, priority 1981, dated 1983).
Converted amounts (≈) assume the structure as drawn. Where two headings read alike, the source gives them in different places.

Tests used:
[1] = system: Bordetella bronchiseptica 16; assay: MIC by standard agar dilution test; format: cell-based
[2] = system: Staphylococcus aureus 3055; assay: MIC by standard agar dilution test; format: cell-based; settings: Staphylococcus aureus, 3055, read-out: Minimum Inhibitory Concentration
[3] = system: Pseudomonas aeruginosa SF-2; assay: MIC by standard agar dilution test; format: cell-based
Serratia marcescens SE3 = assay: MIC by standard agar dilution test; format: cell-based
Erwinia amylovora = assay: MIC by standard agar dilution test; format: cell-based; settings: Table II, read-out: Minimum Inhibitory Concentration
Description: (§1) The antibacterial activity of the antibiotic compounds of this invention is illustrated by the following in vitro and in vivo test data obtained with representative compounds. In Tables I and II the minimum inhibitory concentration (MIC) for representative compounds against a wide range of gram-positive and gram-negative bacteria is presented. The MIC values were obtained by the standard agar dilution test.

[4] = system: Staphylococcus aureus 3074; assay: MIC by standard agar dilution test; format: cell-based; settings: Table II, read-out: Minimum Inhibitory Concentration
Description: as §1

Salmonella typhosa SA12 = assay: MIC by standard agar dilution test; format: cell-based; settings: Salmonella enterica, read-out: Minimum Inhibitory Concentration
[5] = system: Pseudomonas aeruginosa 4276; assay: MIC by standard agar dilution test; format: cell-based
[6] = system: Pseudomonas aeruginosa X239; assay: MIC by standard agar dilution test; format: cell-based
[7] = system: Enterobacter aerogenes EB6; assay: MIC by standard agar dilution test; format: cell-based; settings: Klebsiella aerogenes, EB6, read-out: Minimum Inhibitory Concentration
[8] = system: Pseudomonas aeruginosa X48; assay: MIC by standard agar dilution test; format: cell-based; settings: X48, read-out: Minimum Inhibitory Concentration
Proteus morganii PR2 = assay: MIC by standard agar dilution test; format: cell-based; settings: Morganella morganii
Salmonella typhimurium = assay: MIC by standard agar dilution test; format: cell-based; settings: Salmonella enterica, read-out: Minimum Inhibitory Concentration
Escherichia coli EC14 = assay: MIC by standard agar dilution test; format: cell-based; settings: EC14, read-out: Minimum Inhibitory Concentration
[9] = system: Streptococcus faecalis X66; assay: MIC by standard agar dilution test; format: cell-based; settings: Enterococcus faecalis, X66; Table II; agar dilution; read-out: Minimum Inhibitory Concentration
[10] = system: Klebsiella pneumoniae KL2; assay: MIC by standard agar dilution test; format: cell-based; settings: KL2, read-out: Minimum Inhibitory Concentration
[11] = system: Pseudomonas aeruginosa X528; assay: MIC by standard agar dilution test; format: cell-based
[12] = system: Pseudomonas solanacearum X185; assay: microbe, parasite or virus in culture; format: cell-based; settings: Ralstonia solanacearum, X185, read-out: Minimum Inhibitory Concentration
[13] = system: Pseudomonas aeruginosa Ps25; assay: MIC by standard agar dilution test; format: cell-based; settings: PS25, read-out: Minimum Inhibitory Concentration
Serratia marcescens SE2 = assay: MIC by standard agar dilution test; format: cell-based; settings: SE2, read-out: Minimum Inhibitory Concentration
Serratia marcescens X99 = assay: MIC by standard agar dilution test; format: cell-based; settings: X99, read-out: Minimum Inhibitory Concentration
[14] = system: Enterobacter cloacae EN453; assay: MIC by standard agar dilution test; format: cell-based; settings: EN453, read-out: Minimum Inhibitory Concentration
[15] = system: Klebsiella pneumoniae KL14; assay: MIC by standard agar dilution test; format: cell-based; settings: KL14, read-out: Minimum Inhibitory Concentration
Proteus morganii PR15 = assay: MIC by standard agar dilution test; format: cell-based; settings: Morganella morganii, PR15; Table II; agar dilution; read-out: Minimum Inhibitory Concentration
[16] = system: Enterobacter aerogenes EB17; assay: MIC by standard agar dilution test; format: cell-based; settings: Klebsiella aerogenes, EB17, read-out: Minimum Inhibitory Concentration
[17] = system: Citrobacter freundii CF17; assay: MIC by standard agar dilution test; format: cell-based
Proteus inconstans PV25 = assay: MIC by standard agar dilution test; format: cell-based; settings: Providencia alcalifaciens, PV25, read-out: Minimum Inhibitory Concentration
[18] = system: Pseudomonas aeruginosa Ps9; assay: MIC by standard agar dilution test; format: cell-based
[19] = system: Enterobacter cloacae EB24; assay: MIC by standard agar dilution test; format: cell-based; settings: EB24, read-out: Minimum Inhibitory Concentration
[20] = system: Pseudomonas aeruginosa PI23; assay: MIC by standard agar dilution test; format: cell-based
Proteus morganii PR1 = assay: MIC by standard agar dilution test; format: cell-based; settings: Morganella morganii, PR1, read-out: Minimum Inhibitory Concentration
[21] = system: Pseudomonas aeruginosa Ps15; assay: MIC by standard agar dilution test; format: cell-based; settings: PS15, read-out: Minimum Inhibitory Concentration
[22] = system: Pseudomonas aeruginosa X239; assay: Subcutaneous therapy of Pseudomonas aeruginosa X239 infections in mice; format: in vivo; settings: X239, sc, 2 subcutaneous doses at 1 and 5 hours post infection, dose to protect 50 percent of test animals, read-out: Effective Dose (ED50)
Experimental: Table III illustrates the effective dose (ED50, effective dose to protect 50 percent of the test animals) for representative compounds of this invention against an experimental bacterial infection in mice. | *mg/kg × 2 subcutaneous doses at 1 and 5 hours post infections The ED50 values were determined as described by W. E. Wick et al., Journal of Bacteriolocy, 81 [No. 2], 233-235 (1961).

[23] = SF2, read-out: Minimum Inhibitory Concentration
[24] = SE3, read-out: Minimum Inhibitory Concentration, Table 1
[25] = SE3, read-out: Minimum Inhibitory Concentration, Table II
[26] = Pseudomonas aeruginosa, 4276, read-out: Minimum Inhibitory Concentration
[27] = X239, read-out: Minimum Inhibitory Concentration, Table II
[28] = PR2, Table 1, agar dilution, read-out: Minimum Inhibitory Concentration
[29] = X239, read-out: Minimum Inhibitory Concentration, Table 1
[30] = X528, read-out: Minimum Inhibitory Concentration
[31] = PS9, read-out: Minimum Inhibitory Concentration
[32] = PI23, read-out: Minimum Inhibitory Concentration

Compound	MIC [2] [µg/mL]	MIC [3, 23] [µg/mL]	MIC (Serratia marcescens SE3; [24]) [µg/mL]	MIC (Serratia marcescens SE3; [25]) [µg/mL]	MIC (Erwinia amylovora) [µg/mL]	MIC [4] [µg/mL]	MIC (Salmonella typhosa SA12) [µg/mL]	MIC [5, 26] [µg/mL]	MIC [6, 27] [µg/mL]	MIC [7] [µg/mL]	MIC [8] [µg/mL]	MIC [10] [µg/mL]	MIC [13] [µg/mL]	MIC (Serratia marcescens SE2) [µg/mL]	MIC (Serratia marcescens X99) [µg/mL]	MIC [14] [µg/mL]	MIC (Proteus inconstans PV25) [µg/mL]	MIC [19] [µg/mL]	MIC (Proteus morganii PR1) [µg/mL]	MIC [21] [µg/mL]	also measured
CN[C@@H]1[C@@H](O[C@H]2O[C@H](CCl)[C@@H](N)[C@H](O)[C@H]2O)O[C@H]2C[C@@H](N)[C@@H](O[C@H]3[C@H](O)[C@@H](O)[C@H](N)C[C@@H]3N)O[C@@H]2[C@@H]1O [Test Compound 3, 6"-Chloro-6"-Deoxyapramycin]	1 (≈ 1.79 µM)	16 (≈ 28.7 µM)	4 (≈ 7.17 µM)	16 (≈ 28.7 µM)	1 (≈ 1.79 µM)	1 (≈ 1.79 µM)	2 (≈ 3.58 µM)	16 (≈ 28.7 µM)	2 (≈ 3.58 µM)	4 (≈ 7.17 µM)	16 (≈ 28.7 µM)	4 (≈ 7.17 µM)	16 (≈ 28.7 µM)	4 (≈ 7.17 µM)	4 (≈ 7.17 µM)	4 (≈ 7.17 µM)	4 (≈ 7.17 µM)	4 (≈ 7.17 µM)	4 (≈ 7.17 µM)	16 (≈ 28.7 µM)	MIC ([1]; Bordetella bronchiseptica, 16, Table II, agar dilution, read-out: Minimum Inhibitory Concentration): 8 µg/mL (≈ 14.3 µM); MIC ([6]; X239, Table 1, read-out: Minimum Inhibitory Concentration): 8 µg/mL (≈ 14.3 µM); MIC (Proteus morganii PR2; [28]): 32 µg/mL (≈ 57.3 µM); MIC (Salmonella typhimurium; Table II, agar dilution): 8 µg/mL (≈ 14.3 µM); MIC (Escherichia coli EC14): 16 µg/mL (≈ 28.7 µM); MIC [9]: 8 µg/mL (≈ 14.3 µM); MIC ([11]; X528, Table 1, agar dilution, read-out: Minimum Inhibitory Concentration): 32 µg/mL (≈ 57.3 µM); MIC [12]: 2 µg/mL (≈ 3.58 µM); MIC [15]: 2 µg/mL (≈ 3.58 µM); MIC (Proteus morganii PR15): 8 µg/mL (≈ 14.3 µM); MIC [16]: 16 µg/mL (≈ 28.7 µM); MIC ([17]; CF17, read-out: Minimum Inhibitory Concentration): 4 µg/mL (≈ 7.17 µM); MIC ([18]; PS9, Table 1, agar dilution, read-out: Minimum Inhibitory Concentration): 32 µg/mL (≈ 57.3 µM); MIC ([20]; PI23, Table 1, agar dilution, read-out: Minimum Inhibitory Concentration): > 128 µg/mL
CN[C@@H]1[C@@H](O[C@H]2O[C@H](C)[C@@H](N)[C@H](O)[C@H]2O)O[C@H]2C[C@@H](N)[C@@H](O[C@H]3[C@H](O)[C@@H](O)[C@H](N)C[C@@H]3N)O[C@@H]2[C@@H]1O [Test Compound 4, 6"-Deoxyapramycin]	2 (≈ 3.82 µM)	–	4 (≈ 7.64 µM)	16 (≈ 30.6 µM)	2 (≈ 3.82 µM)	1 (≈ 1.91 µM)	4 (≈ 7.64 µM)	–	2 (≈ 3.82 µM)	4 (≈ 7.64 µM)	4 (≈ 7.64 µM)	4 (≈ 7.64 µM)	4 (≈ 7.64 µM)	4 (≈ 7.64 µM)	2 (≈ 3.82 µM)	4 (≈ 7.64 µM)	2 (≈ 3.82 µM)	4 (≈ 7.64 µM)	4 (≈ 7.64 µM)	4 (≈ 7.64 µM)	MIC ([1]; Bordetella bronchiseptica, 16, read-out: Minimum Inhibitory Concentration): 16 µg/mL (≈ 30.6 µM); MIC ([3]; SF2, Table 1, agar dilution, read-out: Minimum Inhibitory Concentration): 8 µg/mL (≈ 15.3 µM); MIC ([5]; Pseudomonas aeruginosa, 4276, Table 1, agar dilution, read-out: Minimum Inhibitory Concentration): 8 µg/mL (≈ 15.3 µM); MIC [6, 29]: 4 µg/mL (≈ 7.64 µM); MIC (Proteus morganii PR2; [28]): 8 µg/mL (≈ 15.3 µM); MIC (Salmonella typhimurium): 16 µg/mL (≈ 30.6 µM); MIC (Escherichia coli EC14): 16 µg/mL (≈ 30.6 µM); MIC [9]: 8 µg/mL (≈ 15.3 µM); ED50 [22]: 10.9 mg/kg; MIC [11, 30]: 16 µg/mL (≈ 30.6 µM); MIC [12]: 4 µg/mL (≈ 7.64 µM); MIC [15]: 4 µg/mL (≈ 7.64 µM); MIC (Proteus morganii PR15): 8 µg/mL (≈ 15.3 µM); MIC [16]: 4 µg/mL (≈ 7.64 µM); MIC ([17]; CF17, Table II, agar dilution, read-out: Minimum Inhibitory Concentration): 8 µg/mL (≈ 15.3 µM); MIC [18, 31]: 16 µg/mL (≈ 30.6 µM); MIC [20, 32]: > 128 µg/mL
CN[C@@H]1[C@@H](O[C@H]2O[C@H](CO[Si](C)(C)C(C)(C)C)[C@@H](N)[C@H](O)[C@H]2O)O[C@H]2C[C@@H](N)[C@@H](O[C@H]3[C@H](O)[C@@H](O)[C@H](N)C[C@@H]3N)O[C@@H]2[C@@H]1O [Test Compound 6, 6"-O-(tert-Butyldimethylsilyl)Apramycin]	–	128 (≈ 196 µM)	64 (≈ 97.9 µM)	–	–	–	–	128 (≈ 196 µM)	–	32 (≈ 48.9 µM)	> 128	32 (≈ 48.9 µM)	128 (≈ 196 µM)	64 (≈ 97.9 µM)	32 (≈ 48.9 µM)	32 (≈ 48.9 µM)	16 (≈ 24.5 µM)	16 (≈ 24.5 µM)	32 (≈ 48.9 µM)	128 (≈ 196 µM)	MIC [6, 29]: 128 µg/mL (≈ 196 µM); MIC (Proteus morganii PR2; PR2, read-out: Minimum Inhibitory Concentration): 64 µg/mL (≈ 97.9 µM); MIC [11, 30]: 64 µg/mL (≈ 97.9 µM); MIC [18, 31]: > 128 µg/mL; MIC [20, 32]: > 128 µg/mL
